Assay results from patent US20100104580A1, “Altered Immunogenic Landscape in HIV-1 Envelope Proteins” (priority 2008, published 2010).

Legend:
[1] = system: interaction between gp120 and 17b; conditions: cited from earlier work
[2] = system: interaction between gp120 and four-domain soluble CD4 (4dCD4); conditions: cited from earlier work
[3] = target: gp120 binding to both host cell receptors (CD4 and CCR5) (Human immunodeficiency virus type 1 group M subtype B, UniProt P35961); assay: Dual antagonism of gp120 binding to host cell receptors; design: species or system HIV-1; conditions: inhibiting gp120 binding to CD4 and CCR5
[4] = system: gp 120 from two other HIV-1 strains; assay: Affinity for gp120 of other strains; type: binding
Source text: HIV-1YU2gp120 was produced as described previously in Drosophila S2 cells (Biorn et al., 2004, Biochem. 43:1928-1938; Pancera et al., 2005, J Virol. 79:9954-9969). Cells were spun down and supernatant sterile filtered. Supernatant was purified over an F105-antibody column (NHS-activated Sepharose, Amersham; F 105 antibody coupled according to manufacturer's instructions). […] Supernatant from the hollow fiber bioreactor was purified with an SP-column and bound fractions were then run over a Q-column. Unbound material was concentrated and analysed by SDS-PAGE. The gp120 proteins from HIV-1 SF162 and HIV-192UG037-08 were used in previous inhibitor binding studies (Cocklin et al., 2007, J Virol. 81:3645-3648); HIV-1SF162 gp120 was obtained through NIH AIDS Research and Reference Reagent Program from DAIDS and NIAID, while HIV-192UG037-08 gp120 was a gift as reported in Cocklin et al. (2007, J Virol. 81:3645-3648). The following monoclonal antibodies were obtained through the NIH AIDS Research and Reference Reagent Program: 2G12 from Dr Hermann Katinger; F105 from Dr Marshall Posner and Dr Lisa Cavacini; b12 from Dr Dennis Burton and Carlos Barbas.

[5] = target: T1, gp120YU2 (Human immunodeficiency virus type 1 group M subtype B, UniProt P35961); type: binding, HIV-1; conditions: HNG-156 at the concentrations tested (0.6 μM elsewhere in the source)
T1 construct: for HIV-1 YU2 gp 120 envelope protein; made in house; host or cells: Drosophila S2 cells
Protocol: b12 binding to gp120YU2 was assayed by SPR using a Biacore 3000 instrument. […] Buffer (PBS+0.005% Tween-20) injection and control surface responses were subtracted from the injection of gp120 over b12 and binding sensorgrams were obtained.
Inhibition curves were generated from response at the end of association. b12 was injected at 100 ul/min with 2.5 min. association and 2 min. dissociation and binding curves were generated from responses at the 100th second of dissociation.
100 ng gp120YU2 was adsorbed to wells. […] Bound antibody was detected with species specific secondary antibody-HRP, and read with OPD assay at 450 nm.

[6] = system: SHIV89.6P; conditions: cited from earlier work
[7] = system: M-tropic and T-tropic strains of HIV-1, SIV, FIV; conditions: cited from earlier work
[8] = female macaques; cited from earlier work
[9] = system: HIV-1 BaL; conditions: recombinant CV-N; cited from earlier work

## CC[C@H](C)[C@H](NC(=O)[C@@H](N)CCCNC(=N)N)C(=O)N[C@@H](CC(N)=O)C(=O)N[C@@H](CC(N)=O)C(=O)N[C@H](C(=O)N1CCC[C@H]1C(=O)N[C@@H](Cc1c[nH]c2ccccc12)C(=O)N[C@@H](CO)C(=O)N[C@@H](CCC(=O)O)C(=O)N[C@@H](C)C(=O)N[C@@H](CCSC)C(=O)N[C@@H](CCSC)C(=O)O)[C@@H](C)CC [12p1]
[1]
  inhibition of the gp120-17b interaction: found to inhibit
[2]
  inhibition of the gp120-4dCD4 interaction: found to inhibit

## CC[C@H](C)[C@H](NC(=O)[C@@H](N)CCCNC(=N)N)C(=O)N[C@@H](CC(N)=O)C(=O)N[C@@H](CC(N)=O)C(=O)N[C@H](C(=O)N1C[C@@H](n2cc(-c3cccc4ccccc34)nn2)C[C@H]1C(=O)N[C@@H](Cc1c[nH]c2ccccc12)C(=O)N[C@@H](CO)C(=O)N[C@@H](CCC(=O)O)C(=O)N[C@@H](C)C(=O)N[C@@H](CCSC)C(=O)N[C@@H](CCSC)C(N)=O)[C@@H](C)CC [HNG-125]
[3]
  dual antagonism function: dual antagonism function

## CC[C@H](C)[C@H](NC(=O)[C@@H](N)CCCNC(=N)N)C(=O)N[C@@H](CC(N)=O)C(=O)N[C@@H](CC(N)=O)C(=O)N[C@H](C(=O)N1C[C@@H](n2cc([C]34[CH]5[CH]6[CH]7[CH]3[Fe]6754389%10[CH]4[CH]3[CH]8[CH]9[CH]4%10)nn2)C[C@H]1C(=O)N[C@@H](Cc1c[nH]c2ccccc12)C(=O)N[C@@H](CO)C(=O)N[C@@H](CCC(=O)O)C(=O)N[C@@H](C)C(=O)N[C@@H](CCSC)C(=O)N[C@@H](CCSC)C(N)=O)[C@@H](C)CC (stereo partly drawn) [HNG-156, RINNIXWSEAMM, where residue 6 is (2s, 4s)-4-(4-ferrocenyl-1H-1, 2, 3-triazol-1-yl) pyrrolidine-2-carboxylic acid]
[3]
  dual antagonism function: dual antagonism function
[4]
  affinity for gp 120 from two other HIV-1 strains: similarly high affinity
[5]
  mAb F105 binding inhibition: inhibited to near completion

B1: CV-N: 11 kD protein originally isolated from the cyanobacteria Nostoc ellipsosporum (protein)
chain: LGKFSQTCYNSAIQGSVLTSTCERTNGGYNTSSIDLNSVIENVDGSLKWQPSNFIETCRNTQLAGSSELAAECKTRAQQFVSTKINLDDHIANIDGTLKYE
[6]; gel formulations applied rectally, male macaques
  protection against virus challenge: protected against challenge
[6]; rectal and vaginal macaque in vivo assays
  clinically adverse effects: no clinically adverse effects
[7]
  inactivation of virus strains: inactivates a broad range of M-tropic and T-tropic strains
[8]
  in vivo efficacy, vaginal challenge: In vivo efficacy has also be shown
[9]
  cytotoxic effects in ectocervical explants: without cytotoxic effects
  infection of human ectocervical explants: blocks HIV-1 BaL infection
